Laboratory results published in patent US8536132B2, “Lymphatic zip codes in tumors and pre-malignant lesions” (Sanford-Burnham Medical Research Institute, priority 2006, dated 2013).
Entries after “also recorded” stand apart in the source; their conditions may differ. Marks after values point to notes of the source that are not given here.

Key:
[1] = system: MMTV-PyMT breast tumors; assay: In vivo phage homing to MMTV-PyMT breast tumors; parameters: species or system mouse; conditions: for phage homing to MMTV-PyMT breast tumors (in words): i.v. injected phage; for Fold over control phage / Specific Homing: phage homing in vivo, MMTV-PyMT breast tumors
Protocol: (§1) The following cell lines were maintained in DMEM supplemented with 10% FCS: C8161 human melanoma, MDA-MB-435 human breast cancer, KRIB human osteosarcoma, and human prostate cancer cells PPC1, DU145. LNCaP human prostate cancer cell line was grown in RPMI 1640 medium with 10 mM HEPES, 1 mM sodium pyruvate and 1.5 g/L sodium bicarbonate supplemented with 10% FCS. M12 human prostate cancer cell line was cultured in RPMI 1640 with 5 μg/ml insulin-transferrin-sodium selenite (ITS), 2.5 μg/ml fungizone, 50 μg/ml gentamycin, 0.2 μM dexamethasone, 10 ng/ml epidermal growth factor (EGF), and 5% FCS (Bae et al., 1998). To produce tumors, nude BALB/c and C56BL/6 mice were subcutaneously (C8161, KRIB, and PPC1) or orthotopically ([…], PPC1, DU145, M12, and LNCaP) injected with 1×10^6 tumor cells. Transgenic mouse tumor models included TRAMP prostate cancer, MMTV-PyMT breast cancer, and K14-HPV16 cervical cancer. To initiate cervical carcinogenesis, female K14-HPV16 mice (Arbeit et al., 1994) were treated with 17β-estradiol (E2; (Arbeit et al., 1996; Giraudo et al., 2004). Briefly, one-month-old virgin female transgenic (heterozygous K14-HPV16, 1203#1) and nontransgenic (FVB/n) mice were anesthetized with isoflurane, and continuous release pellets that deliver E2 at doses of 0.05 mg over 60 days (Innovative Research of America, Sarasota, Fla., USA) were implanted subcutaneously in the dorsal back skin. Subsequent pellets were implanted at 3 and 5 months of age for a total of 6 months of hormone treatment. K14-HPV16 mice were maintained in the FVB/n background (FVB/n; The Jackson Laboratory). The mice were maintained in accordance with the University of California, San Francisco (UCSF) institutional guidelines governing the care of laboratory mice. The animal experimentation was approved by Animal Research Committees at UCSF or The Burnham Institute.
(§2) In vivo homing specificity of phage was tested as described (Hoffman, 2004). Briefly, mice bearing tumors were anesthetized and intravenously injected with 5×10^9 pfu of phage. After 7 min, the mice were perfused through the heart with PBS containing 0.5% BSA. The tumor and control organs were dissected from each mouse and the phage were rescued and tittered. For histology analysis, the mice were perfused with 4% PFA 30 min after the injection of phage. Tissues were embedded in Tissue-Tek O.C.T. and 5 μm sections were prepared for phage immunostaining.

[2] = system: pre-malignant TRAMP lesions
Protocol: (§3) Custom immunization to produce a rabbit antiserum against mouse Prox-1 was performed by Proteintech Inc. New Zealand White rabbits were immunized with a fusion protein of GST-C-terminal fragment of Prox-1 protein. The antibody was affinity purified on the fusion protein and absorbed with GST. […] Antibodies against the lymphatic markers anti-LYVE-1 (Laakkonen et al., 2002) and anti-podoplanin (kindly provided by T. Petrova and K. Alitalo), rat monoclonal anti-mouse CD31 (BD Pharmingen), rat anti-mouse MECA-32 (Pharmingen), rabbit polyclonal anti-T7 phage, and rat anti-mouse VEGFR3 were used for immunohistochemical staining of frozen tissue sections as described (Joyce et al., 2003; Laakkonen et al., 2002). The corresponding secondary antibodies were added and incubated for 1 hr at room temperature: AlexaFluor-488 goat anti-rat or rabbit IgG (1:1000; Molecular Probes, Eugene, Oreg.), AlexaFluor-594 goat anti-rat or rabbit IgG (1:1000, Molecular Probes), AlexaFluor-594 donkey anti-mouse or goat IgG (1:1000, Molecular Probes), and AlexaFluor-488 donkey anti-mouse or goat IgG (1:1000; Molecular Probes), respectively. The slides were washed three times with PBS and mounted in Vectashield Mounting Medium with DAPI (Vector Laboratories, Burlingame, Calif.). Blood vessels were also visualized by intravenously injecting Lycopersicon esculentum (tomato) lectin conjugated to fluorescein (100 μg of lectin in 200 μl of PBS; Vector Laboratories). […] The injected peptides were allowed to circulate 30 min to 2 hrs, and the mice were perfused with 4% paraformaldehyde through the left ventricle of heart. Tissues were dissected and frozen in OCT embedding medium (Tissue-Tek, Elkhart, Ind.). The frozen sections were prepared for immunohistological analysis.

[3] = system: TRAMP prostate tumors; conditions: for fluorescent peptide in TRAMP prostate tumors (in words): fluorescein-conjugated peptide i.v.
Protocol: as §3

[4] = system: TRAMP PIN lesions; assay: In vivo phage homing to TRAMP pre-malignant (PIN) lesions; parameters: species or system mouse; conditions: for phage homing to TRAMP pre-malignant lesions (in words): i.v. injected phage
Protocol: as §1, §2

[5] = system: TRAMP prostate tumors; assay: In vivo phage homing to TRAMP prostate tumors; parameters: species or system mouse; conditions: for Fold over control phage / Specific Homing: phage homing in vivo, TRAMP prostate tumors; for phage homing to TRAMP prostate tumors (in words): i.v. injected phage
Protocol: as §1, §2

[6] = system: normal tissues; assay: In vivo phage homing to normal and control tissues; parameters: species or system mouse; conditions: for phage in other tissues versus nonrecombinant control phage: lymph nodes, kidneys, lungs, skin, gut
Protocol: as §2

[7] = system: K14-HPV16/E2 cervical tumors; assay: In vivo phage homing to K14-HPV16/E2 cervical tumors; parameters: species or system mouse; conditions: for phage homing to K14-HPV16/E2 cervical tumors (in words): i.v. injected phage; for Fold over control phage / Specific Homing: phage homing in vivo, K14-HPV16/E2 cervical cancer / cervical tumors
Protocol: as §1, §2

[8] = system: human prostate tumor sections; assay: Phage overlay of tissue sections from human prostate cancer; conditions: two primary human prostate cancers
Protocol: The frozen sections of human prostate tumor specimens were obtained from Dr. Daniel Mercola (Sidney Kimmel Cancer Center, La Jolla, Calif.). The sections (5 μm) were preincubated with blocking buffer (5% normal goat serum and 0.5% BSA in 1×PBS) for 1 hr at room temperature, washed three times with diluted blocking buffer (1:10), and phage (3×10^9 pfu) were incubated on the section for 4 hrs. After 3 washes, rabbit anti-phage antibody (10 μg/ml) was added and the phage incubated for 2 hrs. The slides were washed and incubated with AlexaFluor-488 goat anti-rabbit IgG for 1 hr. After further washes, the slides were mounted with Vectashield (VECTOR, Burlingame, Calif.).

[9] = system: cultured PPC1 cells; assay: REA phage binding to cultured PPC1 cells; assay type: cell-based, human; conditions: listed as REA-phage
[10] = system: M12 orthotopic xenografts; assay: In vivo phage homing to M12 orthotopic xenografts; parameters: species or system mouse; conditions: for phage homing to M12 xenografts (in words): i.v. injected phage
Protocol: as §1, §2

[11] = system: K14-HPV16/E2 cervical lesions; assay: Distribution of fluorescent peptides in K14-HPV16/E2 mice with cervical lesions; assay type: in vivo, mouse; conditions: labeled peptide i.v.
Protocol: The frozen sections were prepared for immunohistological analysis.

[12] = system: C8161 xenografts; assay: In vivo phage homing to C8161 xenograft tumors; parameters: species or system mouse
Protocol: as §1, §2

[13] = phage and fluorescein-labeled peptide, TRAMP pre-malignant lesions
[14] = phage homing in vivo, TRAMP PIN lesions
[15] = phage homing in vivo, M12 orthotopic xenografts
[16] = phage and fluorescein-labeled peptide, TRAMP tumors
[17] = phage homing in vivo, C8161 (s.c.) xenografts

## CAGRRSAYC [homing peptide for pre-malignant TRAMP prostate lesions]
[1]
  phage homing to MMTV-PyMT breast tumors (in words): little homing of the phage
  Fold over control phage: 4 fold
  Specific Homing: No
[2]; [13]
  co-localization with lymphatic markers podoplanin, VEGFR3, LYVE-1, Prox-1: substantial co-localization
  localization versus blood vessel markers CD31 and MECA-32: entirely distinct
[3]
  fluorescent peptide in TRAMP prostate tumors (in words): little or no peptide was seen
[4]; listed as AGR phage
  phage homing to TRAMP pre-malignant lesions (in words): selectively home to pre-malignant lesions; also recorded: homed significantly more; also recorded: homes only to pre-malignant lesions; also recorded: marked preference
[4]; phage clones tested in vivo individually
  enrichment to pre-malignant TRAMP lesions relative to nonrecombinant phage: 24 fold
[4]; [14]
  Fold over control phage: 18 fold
  Specific Homing: Yes
[5]
  Fold over control phage: 4 fold
  Specific Homing: No
[6]
  phage in other tissues versus nonrecombinant control phage: Neither phage was found in other tissues
[7]
  phage homing to K14-HPV16/E2 cervical tumors (in words): little homing of the phage
  Fold over control phage: 4 fold
  Specific Homing: No
[8]
  phage binding to human prostate tumor sections (in words): did not bind

## CREAGRKAC [homing peptide for prostate tumor lymphatics]
[9]
  phage binding to cultured PPC1 cells (in words): not to cultured PPC1 cells; also recorded: did not bind
[1]
  phage homing to MMTV-PyMT breast tumors (in words): negative for REA binding
  Fold over control phage: 8^‡ fold
  Specific Homing: Yes
[10]; listed as REA phage
  phage homing to M12 xenografts (in words): homed
[10]; listed as REA-phage
  phage homing to M12 xenografts (in words): Significant phage homing
[10]; [15]
  Fold over control phage: 24 fold
  Specific Homing: Yes
[2]; fluorescein-conjugated peptide i.v.
  fluorescent peptide in TRAMP pre-malignant lesions (in words): negative
[3]
  fluorescent peptide in TRAMP prostate tumors (in words): accumulated in prostate tumors
[3]; fluorescein-conjugated peptide, prostate tumors
  overlap with podoplanin-positive lymphatic vessels: 90%
[3]; [16]
  co-localization with lymphatic markers podoplanin, VEGFR3, LYVE-1, Prox-1: substantial co-localization
  localization versus blood vessel markers CD31 and MECA-32: entirely distinct
[4]
  phage homing to TRAMP pre-malignant lesions (in words): not to pre-malignant lesions or normal prostate
[11]
  fluorescent peptide in K14-HPV16/E2 cervical lesions/tumors (in words): slightly positive
[5]; i.v. injected phage clone
  enrichment in TRAMP tumors relative to nonrecombinant phage: 50 fold
[5]; listed as REA phage
  phage homing to TRAMP prostate tumors (in words): homes to tumors
[5]; listed as REA-phage
  phage homing to TRAMP prostate tumors (in words): accumulate in TRAMP tumors; also recorded: Significant phage homing
[5]
  Fold over control phage: 46 fold
  Specific Homing: Yes
[6]
  phage in other tissues versus nonrecombinant control phage: Neither phage was found in other tissues
[6]; tumor-free littermates of TRAMP mice
  phage homing to normal prostate: not to pre-malignant lesions or normal prostate
[7]
  phage homing to K14-HPV16/E2 cervical tumors (in words): slightly positive
  Fold over control phage: 7^‡ fold
  Specific Homing: Yes
[12]; i.v. injected phage, C8161 xenograft mice
  phage homing to C8161 tumors (in words): negative for REA binding
[12]; [17]
  Fold over control phage: 5 fold
  Specific Homing: No
[8]
  phage binding to human prostate tumor sections (in words): recognizes the lymphatics of human prostate tumors
